Values after ≈ are worked out from the molar mass of the structure shown.
Columns and labels:
[1] = Mutagenecity in Salmonella typhimurium in presence of s9 fraction by Ames test; type: toxicity, subcellular; conditions: salmonella enterica subsp. enterica serovar typhimurium
[2] = Metabolic stability in cryopreserved rat liver hepatocytes at 10 uM incubated upto 4 hrs by LC/MS/MS analysis; type: ADME, cell-based, Hepatocyte
[3] = Permeability across apical to basolateral side human Caco-2 cells incubated for 2 hrs measured by LC/MS/MS analysis; type: ADME, cell-based; conditions: caco-2, 2 h
[4] = Chemical stability of the compound assessed as decomposition at pH 7 measured upto 24 hrs; type: physicochemical; conditions: buffer, pH 7, 24 h
[5] = Metabolic stability in cryopreserved human liver hepatocytes at 10 uM incubated upto 4 hrs by LC/MS/MS analysis; type: ADME, cell-based, Hepatocyte
[6] = Chemical stability of the compound assessed as decomposition at pH 10 measured upto 24 hrs; type: physicochemical; conditions: buffer, pH 10, 24 h
[7] = Metabolic stability in cryopreserved dog liver hepatocytes at 10 uM incubated upto 4 hrs by LC/MS/MS analysis; type: ADME, cell-based, Canis lupus familiaris, Hepatocyte
[8] = Metabolic stability in rat liver microsomes at pH 7.4 in presence of NADPH/UDPGA by LC/MS/MS analysis; type: ADME, Microsome
[9] = Chemical stability of the compound assessed as decomposition at pH 1 measured upto 24 hrs; type: physicochemical; conditions: buffer, pH 1, 24 h
[10] = Metabolic stability in dog liver microsomes at pH 7.4 in presence of NADPH/UDPGA by LC/MS/MS analysis; type: ADME, Canis lupus familiaris, Microsome
[11] = Chemical stability of the compound in 0.9% NaCl at pH 7.4 measured for 13 week at 40 degC; type: physicochemical; conditions: buffer, pH 7.4, 2184 h; time 13 weeks
[12] = Plasma protein binding in rat plasma assessed as unbound fraction by equilibrium dialysis base LC-MS/MS analysis; type: ADME, cell-free
[13] = Plasma protein binding in human plasma assessed as unbound fraction by equilibrium dialysis base LC-MS/MS analysis; type: ADME, cell-free
[14] = biological target: Sodium channel protein type 5 subunit alpha (Homo sapiens, UniProt Q14524); assay: Inhibition of human Nav1.5 channel; type: toxicity
[15] = Chemical stability of the compound at pH 7 measured upto 7 days; type: physicochemical; conditions: buffer, pH 7, 168 h; time < 7 day
[16] = Mean residence time in Wistar rat plasma 0.3 mg/kg, iv measured upto 24 hrs by LC-MS/MS analysis; type: ADME, organism-based; conditions: in vivo
Cytochrome P450 1A2 [17] = biological target: T1, Cytochrome P450 1A2 (Homo sapiens, UniProt P05177); assay: Induction of human hepatocyte CYP1A2 treated upto 211 uM for 48 hrs by measuring mRNA expression using delta delta Ct method; type: ADME, cell-based; conditions: hepatocytes
T1 sequence (P05177 whole entry): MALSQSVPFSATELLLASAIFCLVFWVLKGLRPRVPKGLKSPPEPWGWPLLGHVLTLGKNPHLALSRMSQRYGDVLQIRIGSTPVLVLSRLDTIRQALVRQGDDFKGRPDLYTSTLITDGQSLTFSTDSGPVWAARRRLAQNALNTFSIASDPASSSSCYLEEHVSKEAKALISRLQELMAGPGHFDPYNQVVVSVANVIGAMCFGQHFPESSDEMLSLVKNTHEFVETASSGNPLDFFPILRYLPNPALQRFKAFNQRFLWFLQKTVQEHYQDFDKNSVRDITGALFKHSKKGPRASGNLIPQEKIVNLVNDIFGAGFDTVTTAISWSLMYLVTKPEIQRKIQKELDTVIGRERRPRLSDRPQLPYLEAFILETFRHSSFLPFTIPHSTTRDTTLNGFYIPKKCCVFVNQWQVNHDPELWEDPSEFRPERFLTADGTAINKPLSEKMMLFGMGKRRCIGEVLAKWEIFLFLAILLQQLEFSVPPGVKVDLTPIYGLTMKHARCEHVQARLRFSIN

Cytochrome P450 3A4 [18] = biological target: T2, Cytochrome P450 3A4 (Homo sapiens, UniProt P08684); assay: Inhibition of human liver microsome CYP3A4 at 0.6 to 20 uM measured by LC/MS/MS analysis; type: ADME; conditions: microsomes, dose 0.6-20 µM
[19] = Volume of distribution at steady state in Wistar rat plasma 0.3 mg/kg, iv measured upto 24 hrs by LC-MS/MS analysis; type: ADME, organism-based; conditions: in vivo
[20] = Plasma protein binding in monkey plasma assessed as unbound fraction by equilibrium dialysis base LC-MS/MS analysis; type: ADME, cell-free, Macaca mulatta; conditions: rhesus monkey
[21] = Chemical stability of the compound at pH 10 measured upto 7 days; type: physicochemical; conditions: buffer, pH 10, 168 h; time < 7 day
Cytochrome P450 3A4 [22] = biological target: T2, Cytochrome P450 3A4; assay: Induction of human hepatocyte CYP3A4 treated upto 211 uM for 48 hrs by measuring mRNA expression using delta delta Ct method; type: ADME, cell-based; conditions: hepatocytes
[23] = Chemical stability of the compound at pH 1 measured upto 7 days; type: physicochemical; conditions: buffer, pH 1, 168 h; time < 7 day
[24] = Chemical stability of the compound in 0.9% NaCl at pH 7.4 measured upto 1 week at 90 degC; type: physicochemical; conditions: buffer, pH 7.4, 168 h; time < 1 weeks
[25] = Clearance in Wistar rat plasma 0.3 mg/kg, iv measured upto 24 hrs by LC-MS/MS analysis; type: ADME, organism-based; conditions: in vivo
Cytochrome P450 1A2 [26] = biological target: T1, Cytochrome P450 1A2; assay: Inhibition of human liver microsome CYP1A2 at 0.6 to 20 uM measured by LC/MS/MS analysis; type: ADME; conditions: microsomes, dose 0.6-20 µM
[27] = Clearance in dog plasma 0.3 mg/kg, iv measured 0.033 to 24 hrs by LC-MS/MS analysis; type: ADME, organism-based, Canis lupus familiaris; conditions: time 0.033-24 hrs
Cytochrome P450 2D6 = Cytochrome P450 2D6 (Homo sapiens, UniProt P10635); assay: Inhibition of human liver microsome CYP2D6 at 0.6 to 20 uM measured by LC/MS/MS analysis; type: ADME; conditions: microsomes, dose 0.6-20 µM
[28] = Stability of the compound assessed as no adsorption to the sterile filter at pH 7.4 in 0.9% NaCl by measuring feasibility of sterilization at 121 degC for 15 mins using HPLC analysis; type: physicochemical; conditions: buffer
Cytochrome P450 2C8 = biological target: T3, Cytochrome P450 2C8 (Homo sapiens, UniProt P10632); assay: Inhibition of human liver microsome CYP2C8 at 0.6 to 20 uM measured by LC/MS/MS analysis; type: ADME; conditions: microsomes, dose 0.6-20 µM
T3 sequence (P10632 whole entry): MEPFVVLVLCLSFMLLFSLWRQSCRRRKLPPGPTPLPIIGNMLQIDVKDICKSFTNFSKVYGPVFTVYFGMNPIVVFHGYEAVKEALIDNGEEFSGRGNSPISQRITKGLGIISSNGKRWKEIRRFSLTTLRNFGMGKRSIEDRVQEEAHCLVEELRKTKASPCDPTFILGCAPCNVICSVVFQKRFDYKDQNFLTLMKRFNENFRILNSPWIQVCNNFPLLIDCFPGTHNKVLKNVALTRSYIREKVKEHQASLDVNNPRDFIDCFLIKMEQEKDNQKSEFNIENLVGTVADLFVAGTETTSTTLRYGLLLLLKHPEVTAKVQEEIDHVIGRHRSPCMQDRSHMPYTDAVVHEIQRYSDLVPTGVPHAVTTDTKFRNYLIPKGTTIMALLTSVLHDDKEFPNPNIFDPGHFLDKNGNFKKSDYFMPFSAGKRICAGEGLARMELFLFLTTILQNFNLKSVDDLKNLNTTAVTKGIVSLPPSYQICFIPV

Cytochrome P450 2C9 = Cytochrome P450 2C9 (Homo sapiens, UniProt P11712); assay: Inhibition of human liver microsome CYP2C9 at 0.6 to 20 uM measured by LC/MS/MS analysis; type: ADME; conditions: microsomes, dose 0.6-20 µM
[29] = Plasma protein binding in dog plasma assessed as unbound fraction by equilibrium dialysis base LC-MS/MS analysis; type: ADME, cell-free, Canis lupus familiaris
[30] = biological target: Voltage-dependent L-type calcium channel subunit alpha-1C (Homo sapiens, UniProt Q13936); assay: Inhibition of human Cav1.2 channel; type: toxicity
[31] = Stability of the compound assessed as no adsorption to the sterile filter at pH 7.4 in 0.9% NaCl by measuring feasibility of sterilization using HPLC analysis; type: physicochemical; conditions: buffer
[32] = Volume of distribution at steady state in dog plasma 0.3 mg/kg, iv measured 0.033 to 24 hrs by LC-MS/MS analysis; type: ADME, organism-based, Canis lupus familiaris; conditions: time 0.033-24 hrs, read-out: Vdss
[33] = biological target: Voltage-gated inwardly rectifying potassium channel KCNH2 (Homo sapiens, UniProt Q12809); assay: Inhibition of hERG by electrode whole cell voltage clamp method; type: toxicity
[34] = Solubility of the compound in pH 7 shaken for 24 hrs; type: physicochemical; conditions: buffer
[35] = biological target: T4, Alpha-2B adrenergic receptor (Homo sapiens, UniProt P18089); assay: Antagonist activity at human recombinant adrenergic alpha2B receptor expressed in CHO cell treated with compound for 5 mins followed by norepinephrine measured for 50 secs by microtitre plate method; type: functional, cell-based
T4 sequence (P18089 whole entry): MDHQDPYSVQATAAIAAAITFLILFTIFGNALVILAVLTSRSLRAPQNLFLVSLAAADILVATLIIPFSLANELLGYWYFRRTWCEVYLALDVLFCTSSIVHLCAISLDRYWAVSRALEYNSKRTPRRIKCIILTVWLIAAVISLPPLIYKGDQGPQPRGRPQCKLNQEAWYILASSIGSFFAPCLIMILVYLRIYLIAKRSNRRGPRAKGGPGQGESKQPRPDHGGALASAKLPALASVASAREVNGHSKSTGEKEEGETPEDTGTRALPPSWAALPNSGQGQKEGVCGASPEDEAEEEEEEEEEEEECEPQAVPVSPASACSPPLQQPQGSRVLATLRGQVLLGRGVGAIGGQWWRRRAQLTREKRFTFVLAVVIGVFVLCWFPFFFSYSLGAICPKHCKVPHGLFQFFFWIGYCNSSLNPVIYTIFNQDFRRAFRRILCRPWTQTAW

T2 sequence (P08684 whole entry): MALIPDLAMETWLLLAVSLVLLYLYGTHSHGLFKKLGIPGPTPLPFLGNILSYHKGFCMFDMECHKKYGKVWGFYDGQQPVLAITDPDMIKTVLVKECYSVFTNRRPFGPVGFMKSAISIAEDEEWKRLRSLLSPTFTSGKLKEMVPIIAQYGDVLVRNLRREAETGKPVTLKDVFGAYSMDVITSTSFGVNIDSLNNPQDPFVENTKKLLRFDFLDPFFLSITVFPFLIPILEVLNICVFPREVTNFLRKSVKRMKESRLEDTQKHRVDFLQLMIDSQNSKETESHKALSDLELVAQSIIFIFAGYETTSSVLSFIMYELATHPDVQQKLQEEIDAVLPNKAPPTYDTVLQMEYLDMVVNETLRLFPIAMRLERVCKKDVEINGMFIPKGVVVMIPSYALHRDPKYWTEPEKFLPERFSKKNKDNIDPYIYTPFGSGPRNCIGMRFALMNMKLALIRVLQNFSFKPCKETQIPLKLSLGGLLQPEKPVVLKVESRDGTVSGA
Sequence of Cytochrome P450 2D6 (P10635 whole entry): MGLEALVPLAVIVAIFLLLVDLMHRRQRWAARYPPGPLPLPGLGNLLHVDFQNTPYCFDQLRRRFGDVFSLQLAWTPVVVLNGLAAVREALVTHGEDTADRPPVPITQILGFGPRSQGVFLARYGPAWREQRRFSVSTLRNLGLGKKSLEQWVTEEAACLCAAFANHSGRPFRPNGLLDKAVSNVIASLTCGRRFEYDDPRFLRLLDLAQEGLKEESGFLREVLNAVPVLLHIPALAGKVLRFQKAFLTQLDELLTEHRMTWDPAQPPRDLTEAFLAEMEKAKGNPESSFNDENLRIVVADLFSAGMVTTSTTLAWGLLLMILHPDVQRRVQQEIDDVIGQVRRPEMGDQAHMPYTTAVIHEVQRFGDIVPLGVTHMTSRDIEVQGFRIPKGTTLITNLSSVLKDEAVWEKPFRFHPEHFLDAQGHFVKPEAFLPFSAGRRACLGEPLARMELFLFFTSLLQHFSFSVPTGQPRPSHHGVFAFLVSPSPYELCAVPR
Sequence of Voltage-dependent L-type calcium channel subunit alpha-1C (Q13936 whole entry): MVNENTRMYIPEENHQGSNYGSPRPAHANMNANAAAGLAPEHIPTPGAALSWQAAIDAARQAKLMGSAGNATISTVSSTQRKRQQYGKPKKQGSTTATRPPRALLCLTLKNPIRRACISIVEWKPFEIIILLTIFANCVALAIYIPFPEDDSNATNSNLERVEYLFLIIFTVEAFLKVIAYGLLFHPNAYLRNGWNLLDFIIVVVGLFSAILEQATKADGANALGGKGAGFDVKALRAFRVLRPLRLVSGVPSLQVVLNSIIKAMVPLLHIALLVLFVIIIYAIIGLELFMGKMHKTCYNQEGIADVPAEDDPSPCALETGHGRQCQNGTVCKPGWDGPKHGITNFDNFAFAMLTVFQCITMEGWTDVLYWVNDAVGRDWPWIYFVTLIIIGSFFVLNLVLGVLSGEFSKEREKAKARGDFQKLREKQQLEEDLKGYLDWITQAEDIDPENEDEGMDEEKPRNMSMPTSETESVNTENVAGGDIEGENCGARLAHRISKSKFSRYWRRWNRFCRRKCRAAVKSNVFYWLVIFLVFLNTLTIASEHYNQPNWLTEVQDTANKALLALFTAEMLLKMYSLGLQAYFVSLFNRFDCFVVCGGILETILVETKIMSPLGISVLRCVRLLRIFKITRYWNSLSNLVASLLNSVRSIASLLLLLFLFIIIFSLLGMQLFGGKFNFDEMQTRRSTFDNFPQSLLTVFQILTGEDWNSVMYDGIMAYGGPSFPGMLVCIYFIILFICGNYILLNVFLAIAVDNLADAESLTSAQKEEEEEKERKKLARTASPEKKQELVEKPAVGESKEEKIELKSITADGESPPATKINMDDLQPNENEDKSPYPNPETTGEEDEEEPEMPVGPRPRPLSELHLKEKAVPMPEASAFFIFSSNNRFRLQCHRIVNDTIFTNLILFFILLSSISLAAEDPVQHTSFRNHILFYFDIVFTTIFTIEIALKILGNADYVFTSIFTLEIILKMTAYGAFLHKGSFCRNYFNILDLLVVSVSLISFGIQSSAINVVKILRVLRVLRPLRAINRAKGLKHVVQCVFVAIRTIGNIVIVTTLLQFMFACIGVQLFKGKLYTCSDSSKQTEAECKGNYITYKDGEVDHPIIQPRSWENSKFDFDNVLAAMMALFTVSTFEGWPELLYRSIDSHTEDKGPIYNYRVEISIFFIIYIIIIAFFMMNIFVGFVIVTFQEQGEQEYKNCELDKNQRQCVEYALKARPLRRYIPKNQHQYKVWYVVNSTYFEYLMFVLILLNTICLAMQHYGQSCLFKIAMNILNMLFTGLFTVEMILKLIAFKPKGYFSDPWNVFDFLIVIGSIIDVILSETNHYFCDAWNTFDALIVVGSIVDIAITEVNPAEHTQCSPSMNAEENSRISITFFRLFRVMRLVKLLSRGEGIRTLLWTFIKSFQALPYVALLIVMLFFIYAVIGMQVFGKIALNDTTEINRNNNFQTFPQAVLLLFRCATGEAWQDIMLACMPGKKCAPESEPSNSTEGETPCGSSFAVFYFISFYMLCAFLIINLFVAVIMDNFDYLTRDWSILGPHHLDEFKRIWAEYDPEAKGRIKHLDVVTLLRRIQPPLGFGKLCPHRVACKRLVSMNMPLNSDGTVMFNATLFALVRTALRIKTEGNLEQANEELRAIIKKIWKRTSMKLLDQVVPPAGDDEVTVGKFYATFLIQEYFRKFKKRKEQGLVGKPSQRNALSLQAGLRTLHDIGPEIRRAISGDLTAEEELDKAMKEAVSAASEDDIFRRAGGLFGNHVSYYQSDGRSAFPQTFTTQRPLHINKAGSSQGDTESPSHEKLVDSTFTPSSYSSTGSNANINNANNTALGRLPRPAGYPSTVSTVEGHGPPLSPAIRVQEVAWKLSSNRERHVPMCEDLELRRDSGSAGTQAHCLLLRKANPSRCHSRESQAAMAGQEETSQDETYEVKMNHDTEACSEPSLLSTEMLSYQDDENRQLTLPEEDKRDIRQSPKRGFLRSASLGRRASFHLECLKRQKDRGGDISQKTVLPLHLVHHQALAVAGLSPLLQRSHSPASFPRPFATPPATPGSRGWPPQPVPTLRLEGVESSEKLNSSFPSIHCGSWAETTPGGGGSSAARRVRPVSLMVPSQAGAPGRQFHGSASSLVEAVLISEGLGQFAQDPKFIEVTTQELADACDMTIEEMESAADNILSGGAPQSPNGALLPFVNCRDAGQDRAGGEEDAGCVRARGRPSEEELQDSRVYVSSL
Sequence of Voltage-gated inwardly rectifying potassium channel KCNH2 (Q12809 whole entry): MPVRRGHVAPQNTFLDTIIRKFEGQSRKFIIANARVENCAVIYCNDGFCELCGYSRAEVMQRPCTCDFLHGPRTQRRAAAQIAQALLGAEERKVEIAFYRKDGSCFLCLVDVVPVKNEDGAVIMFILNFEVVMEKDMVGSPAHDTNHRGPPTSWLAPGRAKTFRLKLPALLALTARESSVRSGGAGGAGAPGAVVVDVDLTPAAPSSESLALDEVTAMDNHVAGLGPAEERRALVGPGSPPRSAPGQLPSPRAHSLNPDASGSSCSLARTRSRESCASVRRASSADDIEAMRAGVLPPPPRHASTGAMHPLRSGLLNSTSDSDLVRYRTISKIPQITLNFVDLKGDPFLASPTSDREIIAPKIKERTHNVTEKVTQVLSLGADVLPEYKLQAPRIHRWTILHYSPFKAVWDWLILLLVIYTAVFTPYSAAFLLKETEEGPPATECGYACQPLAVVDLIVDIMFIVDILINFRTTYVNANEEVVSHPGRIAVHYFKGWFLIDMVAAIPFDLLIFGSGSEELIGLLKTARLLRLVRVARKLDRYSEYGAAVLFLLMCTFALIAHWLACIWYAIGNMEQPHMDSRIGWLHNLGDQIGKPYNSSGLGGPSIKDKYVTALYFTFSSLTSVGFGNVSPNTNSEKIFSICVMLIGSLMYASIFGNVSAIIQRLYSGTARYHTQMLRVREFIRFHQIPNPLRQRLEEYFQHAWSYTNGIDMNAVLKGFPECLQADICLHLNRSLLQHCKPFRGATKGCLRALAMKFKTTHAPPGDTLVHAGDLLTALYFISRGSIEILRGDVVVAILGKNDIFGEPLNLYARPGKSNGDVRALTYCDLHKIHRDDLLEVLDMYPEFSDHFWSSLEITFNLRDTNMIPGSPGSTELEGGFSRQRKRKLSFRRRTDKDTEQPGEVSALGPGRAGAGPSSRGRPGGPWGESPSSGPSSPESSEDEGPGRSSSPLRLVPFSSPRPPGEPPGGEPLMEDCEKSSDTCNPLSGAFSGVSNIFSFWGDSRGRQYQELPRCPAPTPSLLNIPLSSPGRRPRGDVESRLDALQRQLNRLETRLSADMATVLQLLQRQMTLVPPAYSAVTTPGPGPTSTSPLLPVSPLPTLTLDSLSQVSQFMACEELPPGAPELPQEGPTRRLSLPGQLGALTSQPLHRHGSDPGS
Sequence of Cytochrome P450 2C9 (P11712 whole entry): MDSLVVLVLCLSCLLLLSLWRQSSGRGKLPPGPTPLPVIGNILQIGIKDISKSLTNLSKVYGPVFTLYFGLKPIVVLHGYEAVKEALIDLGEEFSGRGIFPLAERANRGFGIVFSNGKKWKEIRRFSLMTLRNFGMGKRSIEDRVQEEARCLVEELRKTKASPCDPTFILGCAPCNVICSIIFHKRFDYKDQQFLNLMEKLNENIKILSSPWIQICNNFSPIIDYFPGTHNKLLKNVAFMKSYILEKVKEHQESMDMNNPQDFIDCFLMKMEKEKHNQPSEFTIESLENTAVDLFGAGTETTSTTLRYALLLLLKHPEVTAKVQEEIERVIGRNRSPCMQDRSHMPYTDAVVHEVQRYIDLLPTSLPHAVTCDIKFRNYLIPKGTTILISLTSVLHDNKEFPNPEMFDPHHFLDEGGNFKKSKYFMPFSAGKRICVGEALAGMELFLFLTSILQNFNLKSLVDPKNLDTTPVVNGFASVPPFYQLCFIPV

## CNc1cc[n+](CCNC(=O)c2ccc3c(c2)ncn3-c2c(C)noc2C)cc1.O=C[O-]
[1]
  Activity: Non-Toxic

## CNc1cc[n+](CC(=O)Nc2ccc3c(c2)ncn3-c2c(C)noc2C)cc1.O=C[O-]
[2]
  Stability: Stable
[3]
  permeability: 0.36 ×10⁻⁶ cm/s
[4]
  Stability: Stable
[5]
  Stability: Stable
[6]
  Stability: Stable
[7]
  Stability: Stable
[8]
  Stability: Stable
[9]
  Stability: Stable
[1]
  Activity: Toxic
[10]
  Stability: Stable

## Cc1noc(C)c1-n1cnc2cc(N)ccc21
[1]
  Activity: Toxic

## CNc1cc[n+](CCNC(=O)c2ccn3c(-c4c(C)noc4C)cnc3c2)cc1.[Cl-]
[11]
  Stability: Stable
[12]
  Fu: 79%
[13]
  Fu: 85%
[14]
  inhibition (INH): Not Active
[15]
  Stability: Stable
[16]
  MRT: 6 min
Cytochrome P450 1A2 [17]
  Activity: Not Active
Cytochrome P450 3A4 [18]
  inhibition (INH): Not Active
[3]
  permeability: 0.3 ×10⁻⁶ cm/s
[19]
  Vdss: 0.5 L/kg
[20]
  Fu: 92%
[21]
  Stability: Stable
Cytochrome P450 3A4 [22]
  Activity: Not Active
[23]
  Stability: Stable
[24]
  Stability: Stable
[25]
  CL: 71.7 mL/min/kg
Cytochrome P450 1A2 [26]
  inhibition (INH): Not Active
[27]
  clearance: 26.7 mL/min/kg
Cytochrome P450 2D6
  inhibition (INH): Not Active
[1]
  Activity: Non-Toxic
[28]
  Stability: Stable
Cytochrome P450 2C8
  inhibition (INH): Not Active
Cytochrome P450 2C9
  inhibition (INH): Not Active
[29]
  Fu: 82%
[30]
  inhibition (INH): Not Active
[31]
  Stability: Stable
[32]
  Vd: 0.6 L/kg
[33]
  inhibition (INH): Not Active

## CNc1cc[n+](CC(=O)Nc2cnc3c(c2)ncn3-c2ccccc2OC)cc1.O=C[O-]
[1]
  Activity: Toxic

## CNc1ccncc1
[1]
  Activity: Non-Toxic

## Cc1noc(C)c1N
[1]
  Activity: Non-Toxic

## COc1ccccc1-n1cnc2cc(NC(C)=O)ccc21
[34]
  solubility thermodynamic at 24 h: 300 µg/mL (≈ 1070 µM)

## COc1ccccc1-n1cnc2cc(NC(=O)CCc3ccccn3)ccc21
[34]
  solubility thermodynamic at 24 h: 20 µg/mL (≈ 53.7 µM)

## CNc1cc[n+](CC(=O)Nc2cccc(C)c2)cc1.O=C[O-]
[1]
  Activity: Non-Toxic

## CNc1cc[n+](CC(Nc2ccc3c(c2)ncn3-c2c(C)noc2C)C(F)(F)F)cc1 (racemic)
[35]
  IC50: 7.05 µM

— ChEMBL document CHEMBL5380818, “BAY-6096: A Potent, Selective, and Highly Water-Soluble Adrenergic α2B Antagonist” (J Med Chem, 2023)
